Values quoted from earlier work in patent US8088760B2, “Benzoxazole carboxamide inhibitors of poly(ADP-ribose)polymerase (PARP)” (BioMarin Pharmaceutical Inc., priority 2008, dated 2012).

Assays:
CAPAN-1 cells = CAPAN-1 cells maintained in DMEM supplemented with FCS (20% v/v), glutamine and antibiotics
PARP-1 = PARP-1 (Homo sapiens, UniProt P09874); conditions: PARP-1 inhibitor
[1] = test system: BRCA2-deficient cell line V-C8; conditions: BRCA2-deficient cell line V-C8 compared with the BRCA2 wild type control

Chain of PARP-1 (P09874 whole entry, species assumed): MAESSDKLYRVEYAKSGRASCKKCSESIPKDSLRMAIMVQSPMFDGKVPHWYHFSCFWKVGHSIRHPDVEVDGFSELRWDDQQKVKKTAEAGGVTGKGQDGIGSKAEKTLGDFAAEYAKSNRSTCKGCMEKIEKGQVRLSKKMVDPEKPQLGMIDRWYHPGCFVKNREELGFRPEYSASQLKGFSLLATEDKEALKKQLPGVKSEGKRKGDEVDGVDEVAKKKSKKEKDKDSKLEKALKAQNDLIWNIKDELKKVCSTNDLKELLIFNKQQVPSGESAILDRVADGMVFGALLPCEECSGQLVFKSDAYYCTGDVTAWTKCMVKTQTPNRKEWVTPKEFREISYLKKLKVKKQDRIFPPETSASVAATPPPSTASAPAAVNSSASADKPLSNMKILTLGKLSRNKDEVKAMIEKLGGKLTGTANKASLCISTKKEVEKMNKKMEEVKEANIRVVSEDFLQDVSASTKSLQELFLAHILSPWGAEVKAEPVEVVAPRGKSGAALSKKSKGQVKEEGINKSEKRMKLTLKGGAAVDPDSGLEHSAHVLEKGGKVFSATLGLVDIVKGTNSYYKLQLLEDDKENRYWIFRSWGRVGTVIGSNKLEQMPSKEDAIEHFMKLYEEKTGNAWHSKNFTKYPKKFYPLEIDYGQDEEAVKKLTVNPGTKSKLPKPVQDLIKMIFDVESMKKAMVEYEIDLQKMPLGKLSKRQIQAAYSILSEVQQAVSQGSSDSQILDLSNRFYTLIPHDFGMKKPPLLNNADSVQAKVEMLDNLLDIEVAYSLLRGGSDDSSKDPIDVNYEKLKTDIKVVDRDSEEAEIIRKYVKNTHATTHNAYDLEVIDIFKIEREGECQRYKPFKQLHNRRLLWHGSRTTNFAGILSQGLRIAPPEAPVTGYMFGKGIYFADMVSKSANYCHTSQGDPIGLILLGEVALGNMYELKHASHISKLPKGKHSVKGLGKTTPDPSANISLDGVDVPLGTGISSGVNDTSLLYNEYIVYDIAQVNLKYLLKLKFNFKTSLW

| Compound | in vivo efficacy in blocking tumor growth (BRCA2-deficient tumors) | sensitivity in clonogenic survival assay (CAPAN-1 cells) | Ki (PARP-1) | sensitivity in clonogenic survival assay [1] |
| --- | --- | --- | --- | --- |
| O=C1CCC(=O)N1c1cc(Cc2n[nH]c(=O)c3ccccc23)ccc1F [KU0058684] | in vivo efficacy in blocking the growth of BRCA2-deficient tumors | showing sensitivity to PARP inhibition | – | – |
| Cc1nc2c(O)cccc2c(=O)[nH]1 [NU1025] | – | – | 50 nM | exhibited sensitivity |
| CN(C)Cc1ccc(-c2nc3cccc4c3n2CCNC4=O)cc1 [AG14361] | – | – | 5 nM | exhibited sensitivity |
